System: 276233-004-R-J1-PDC KRAS spheroids with HUVEC/MSC, viability
Experiment: Anticancer human tumor 276233-004-R-J1-PDC patient-derived colon adenocarcinoma cell line growth inhibition [KRAS2]
Conditions: for IC50: curve of first compound; for viability, T/C: stronger effect = lower value
Procedure, shortened: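 Combination screen of spheroid viability in tumor-cell co-cultures with endothelial (HUVEC) and mesenchymal stem cell stroma. Each agent was tested in half-log dilutions, topping at clinical Cmax or at 10 microM without a known Cmax.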

[1] = second compound 0.1 µM, first compound 0.0316 µM
[2] = second compound 0.1 µM, first compound 0.1 µM
[3] = second compound 0.1 µM, first compound 0.316 µM
[4] = second compound 0.1 µM, first compound 1 µM
[5] = second compound 0.1 µM, first compound 3.16 µM
[6] = second compound 0.1 µM, first compound 10 µM
[7] = second compound 0.316 µM, first compound 0.0316 µM
[8] = second compound 0.316 µM, first compound 0.1 µM
[9] = second compound 0.316 µM, first compound 0.316 µM
[10] = second compound 0.316 µM, first compound 1 µM
[11] = second compound 0.316 µM, first compound 3.16 µM
[12] = second compound 0.316 µM, first compound 10 µM
[13] = second compound 1 µM, first compound 0.0316 µM
[14] = second compound 1 µM, first compound 0.1 µM
[15] = second compound 1 µM, first compound 0.316 µM
[16] = second compound 1 µM, first compound 1 µM
[17] = second compound 1 µM, first compound 3.16 µM
[18] = second compound 1 µM, first compound 10 µM
[19] = second compound 3.16 µM, first compound 0.0316 µM
[20] = second compound 3.16 µM, first compound 0.1 µM
[21] = second compound 3.16 µM, first compound 0.316 µM
[22] = second compound 3.16 µM, first compound 1 µM
[23] = second compound 3.16 µM, first compound 3.16 µM
[24] = second compound 3.16 µM, first compound 10 µM
[25] = second compound 10 µM, first compound 0.0316 µM
[26] = second compound 10 µM, first compound 0.1 µM
[27] = second compound 10 µM, first compound 0.316 µM
[28] = second compound 10 µM, first compound 1 µM
[29] = second compound 10 µM, first compound 3.16 µM
[30] = second compound 10 µM, first compound 10 µM
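Further: cells exposed to agents for seven days before viability read.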
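Wherever viability, T/C is given: 100% = DMSO vehicle control wells and lower values mean fewer viable cells.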

SMILES	IC50 (second compound 0.1 µM)	IC50 (second compound 0.316 µM)	IC50 (second compound 1 µM)	IC50 (second compound 3.16 µM)	IC50 (second compound 10 µM)	viability, T/C [1]	viability, T/C [2]	viability, T/C [3]	viability, T/C [4]	viability, T/C [5]	viability, T/C [6]	viability, T/C [7]	viability, T/C [8]	viability, T/C [9]	viability, T/C [10]	viability, T/C [11]	viability, T/C [12]	viability, T/C [13]	viability, T/C [14]	viability, T/C [15]	also measured
COc1cc2nccc(Oc3ccc(NC(=O)C4(C(=O)Nc5ccc(F)cc5)CC4)cc3)c2cc1OC + C=CC(=O)N1CCN(c2nc(=O)n(-c3c(C)ccnc3C(C)C)c3nc(-c4c(O)cccc4F)c(F)cc23)C(C)C1	> 10 µM	> 10 µM	> 10 µM	> 10 µM	> 10 µM	93.5%	109%	96%	84.7%	101%	104%	97.4%	112%	83.7%	91.3%	87.4%	76.3%	89.1%	91.2%	84.9%	viability, T/C [16]: 72.1%; viability, T/C [17]: 74.5%; viability, T/C [18]: 75.1%; viability, T/C [19]: 85.5%; viability, T/C [20]: 79.8%; viability, T/C [21]: 102%; viability, T/C [22]: 76.7%; viability, T/C [23]: 72.4%; viability, T/C [24]: 114%; viability, T/C [25]: 82.3%; viability, T/C [26]: 74.9%; viability, T/C [27]: 69.1%; viability, T/C [28]: 81.8%; viability, T/C [29]: 88.5%; viability, T/C [30]: 76%
CCNC(=O)CC1N=C(c2ccc(Cl)cc2)c2cc(OC)ccc2-n2c(C)nnc21 (stereo not given) + C=CC(=O)N1CCN(c2nc(=O)n(-c3c(C)ccnc3C(C)C)c3nc(-c4c(O)cccc4F)c(F)cc23)C(C)C1	> 10 µM	> 10 µM	> 10 µM	> 10 µM	> 10 µM	102%	86.5%	78.5%	76.6%	62.6%	65.4%	111%	92.8%	72%	81.5%	69.7%	79.3%	87.5%	101%	72.7%	viability, T/C [16]: 63.3%; viability, T/C [17]: 81%; viability, T/C [18]: 71.5%; viability, T/C [19]: 84.4%; viability, T/C [20]: 87.1%; viability, T/C [21]: 108%; viability, T/C [22]: 49.4%; viability, T/C [23]: 83.2%; viability, T/C [24]: 69.3%; viability, T/C [25]: 79.6%; viability, T/C [26]: 63.3%; viability, T/C [27]: 66.2%; viability, T/C [28]: 61.3%; viability, T/C [29]: 74.7%; viability, T/C [30]: 54.2%

Source: PubChem BioAssay AID1963873 (Molecular Pharmacology Branch, DTP, NCI, 2024)
